The series deals with H460 xenografts. As to the kind of experiment: Inhibition of growth of H460 lung cancer xenograft. The series is classed as in vivo, mice. To be noted: for tumor size reduction: H460 in nude mice, daily dose of 0.5 mg/mL. The method, then: Whether PPS1D1 would inhibit tumor growth in a murine model was examined. H460 cells were implanted in nude mice. Tumors were allowed grow until it reach […]. These xenografts were then treated with a daily dose of […] in four different groups that consist of PPS1D1 alone, docetaxel alone, PPS1D1 and docetaxel together or with the control peptoid (PC462D1) alone. Docetaxel is a standard chemotherapeutic treatment for non-small cell carcinoma. The activity of PPSD1 and its ability to work as a combination treatment were examined. […] This effect was extremely potent and the tumor growth was completely controlled. […] It has been reported that chemotherapy and radiation therapy increase the PS flipping in tumor microenvironment. Therefore, Docetaxel might have helped improve binding of PPS1D1 on cancer cell surface that is now displaying an increased amount of PS to be targeted. After the standard chemotherapy and radiation therapy, the target PS is highly abundant for the drug to recognize and attack.
The effect of PPS1D1 on the growth of H460 xenografts implanted in NOD/SCID immunodeficient mice was examined. Immunodeficient animals were chosen to facilitate the growth of human tumor xenografts. […] Therapy with a control peptoid (PC462D1, 0.25 mg/mouse, 3×/week ip), PPS1D1 (0.25 mg/mouse, 3×/week ip), docetaxel (0.5 mg/kg, 2×/week, ip) or the combination of PPS1D1+docetaxel was initiated when tumors were ˜100 mm3 in volume. […] Tumor tissue was harvested after 4 weeks of therapy and assessed for cell proliferation and apoptosis by immunohistochemistry. […] It is clear from studies with bavituximab that standard chemotherapy (e.g., taxanes) increases the exposure of PS resulting in elevated binding of the PS targeting agent. A similar mechanism can underlie the enhanced activity of docetaxel and PPS1D1.
All animals were housed in a pathogen-free facility with continuous access to food and water. Mice were purchased from the core breeding facility at UT Southwestern. Six to eight-week-old female NOD/SCID mice were injected with 2.5×10^6 H460 cells subcutaneously. Tumor volume was followed by twice weekly measurements with Vernier calipers. Animals were randomized and treatment was initiated with mean tumor volume of each group was 100 mm3. Four different groups used were: (I) control PC462D1, (II) PPS1D1, (III) docetaxel, and (IV) combination of PPS1D1+docetaxel. Mice (n=8/group) were treated with PPS1D1 or PC462D1 in saline by ip injection at a dose of 0.25 mg/mouse, 3 times per week on a M-W-F schedule. Docetaxel from the UT Southwestern Clinical pharmacy was diluted in saline and delivered 2×/week ip at 5 mg/kg. Animals were sacrificed after 4 weeks of therapy. Tumor tissue was snap frozen, sectioned and stained with antibodies specific for phospho-Histone H3 (Millipore, #06-570) and cleaved caspase 3 (Cell Signaling, #9664). Reactivity was developed with appropriate fluorescently conjugated secondary antibodies (Jackson ImmunoResearch) and mounted with Prolong Gold with DAPI (Invitrogen), coverslipped and evaluated by fluorescence microscopy.

Entries after “also recorded” stand apart in the source; their conditions may differ. Positions of bridges follow the written chain, without caps; N, C: chain ends. Non-standard residues stand in square brackets, D forms with d. Residues, ends and D or L forms follow the SMILES beside them. Chains are numbered I, II in the order given. Gly(N-piperonyl) = O=C(O)CNCc1ccc2c(c1)OCO2; N(4-MeOBn)Gly = COc1ccc(CNCC(=O)O)cc1; Nrpe = C[C@@H](NCC(=O)O)c1ccccc1; Nlys = NCCCCNCC(=O)O

With `COc1ccc(CN(CC(=O)N(CCCCN)CC(=O)N[C@@H](CCCCN)C(=O)N[C@H](CCCCN)C(=O)N[C@@H](CCSC)C(=O)NCCCC[C@H](NC(=O)[C@H](CCSC)NC(=O)[C@@H](CCCCN)NC(=O)[C@H](CCCCN)NC(=O)CN(CCCCN)C(=O)CN(Cc2ccc(OC)cc2)C(=O)CN(C(=O)CN(Cc2ccc3c(c2)OCO3)C(=O)CN[C@H](C)c2ccccc2)[C@H](C)c2ccccc2)C(N)=O)C(=O)CN(C(=O)CN(Cc2ccc3c(c2)OCO3)C(=O)CN[C@H](C)c2ccccc2)[C@H](C)c2ccccc2)cc1` [PPS1D1] (I: H-[Nrpe][Gly(N-piperonyl)][Nrpe][N(4-MeOBn)Gly][Nlys]K[dK]MK-NH2 / II: H-[Nrpe][Gly(N-piperonyl)][Nrpe][N(4-MeOBn)Gly][Nlys]K[dK]M; amide I:9-II:C; N-terminus assumed), the tumor size reduction entry is “strong tumor burden effect; also recorded: equally effective in reducing the size of the tumors”. The “tumor growth (tumor volume vs days post therapy initiation)” value (H460 in NOD/SCID mice, peptoids 0.25 mg/mouse 3x/week ip, docetaxel 0.5 mg/kg 2x/week ip) is given as “slowed tumor growth”. Where the note is “listed as PPSD1”, the tumor size reduction entry is “slightly better effect”. Further, the animal weight loss result (at the doses used) is reported as “did not induce animal weight loss”.

The values above are taken from patent US10849875B2, “Cancer specific lipid targeted peptidomimetics” (University of Houston System, priority 2015, dated 2020).
